Experimental data taken from PubChem BioAssay (NCI).
Where “and” joins values, the source holds several entries; their conditions need not be identical. Equal values may be shown once.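 Compound exposure: 48 hours, 5 concentrations, 96-well plates. GI50: concentration for 50% inhibition of growth. TGI: concentration producing complete growth inhibition.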

What was measured:
Experiment in all cases: NCI anticancer screen, dose series, 48 h
A549 NSCLC = test system: A549 NSCLC
OVCAR-4 ovarian = test system: OVCAR-4 ovarian
U251 CNS = test system: U251 CNS
SK-MEL-5 melanoma = test system: SK-MEL-5 melanoma
SK-MEL-2 melanoma = test system: SK-MEL-2 melanoma
SF-539 CNS = test system: SF-539 CNS
HT29 colon = test system: HT29 colon
HCT-116 colon = test system: HCT-116 colon
NCI/ADR-RES ovarian = test system: NCI/ADR-RES ovarian
PC-3 prostate = test system: PC-3 prostate

## CC(C)=CCC/C(C)=C/CC/C(C)=C/C1CCC(=O)C1(C)C (configuration not stated)
A549 NSCLC
  TGI: 77.6 µM
OVCAR-4 ovarian
  TGI: 66 µM
U251 CNS
  TGI: 32.7 µM
SK-MEL-5 melanoma
  TGI: 29.3 µM
SK-MEL-2 melanoma
  TGI: 34.1 µM
SF-539 CNS
  TGI: 38.9 µM
HT29 colon
  TGI: 32.4 µM
HCT-116 colon
  TGI: 30.7 µM

## CC(=O)Oc1cc(Cl)c(OC(C)=O)c2c(OC(C)=O)c(C)c(O[Si](C)(C)C(C)(C)C)cc12
OVCAR-4 ovarian
  TGI: 26.2 µM
U251 CNS
  TGI: 6.78 µM
SK-MEL-5 melanoma
  TGI: 14.6 µM
SK-MEL-2 melanoma
  TGI: 42.6 µM
SF-539 CNS
  TGI: 27.7 µM
HCT-116 colon
  TGI: 13.6 µM

## COC(=O)C1=C(O)c2cc3c(cc2[C@H](c2cc(OC)c(OC)c(OC)c2)C1)OCO3
A549 NSCLC
  TGI: > 100 µM
OVCAR-4 ovarian
  TGI: > 100 µM
U251 CNS
  TGI: > 100 µM
SK-MEL-5 melanoma
  TGI: 61.1 µM
SF-539 CNS
  TGI: > 100 µM
HT29 colon
  TGI: > 100 µM
HCT-116 colon
  TGI: > 100 µM

## CN(C)C1C(=O)C(C(N)=O)=C(O)C2(O)C(=O)C3=C(O)c4c(O)cccc4C(C)(O)C3CC12 (configuration not stated)
NCI/ADR-RES ovarian
  TGI: > 100 µM
A549 NSCLC
  TGI: > 100 µM
OVCAR-4 ovarian
  GI50: 31 µM and > 100 µM
  TGI: 75 µM and > 100 µM
SK-MEL-5 melanoma
  GI50: 22.4 µM and 56.5 µM
  TGI: 39.9 µM and > 100 µM
PC-3 prostate
  TGI: > 100 µM
SK-MEL-2 melanoma
  GI50: 73 µM and 28 µM
  TGI: > 100 µM and 91.8 µM
HT29 colon
  GI50: 27.2 µM and > 100 µM
  TGI: 67.9 µM and > 100 µM
HCT-116 colon
  GI50: 23.7 µM and > 100 µM
  TGI: 39.2 µM and > 100 µM

## COc1c(Cl)[c]([Hg][O]C(C)=O)c(NCC(C)=O)c(OC)[c]1[Hg][O]C(C)=O
A549 NSCLC
  GI50: 81.6 µM
  TGI: > 100 µM
OVCAR-4 ovarian
  GI50: 20 µM
  TGI: 79.7 µM
U251 CNS
  GI50: 10 µM
  TGI: 21.9 µM
SK-MEL-5 melanoma
  GI50: 11.1 µM
  TGI: 26.1 µM
SK-MEL-2 melanoma
  GI50: 11.9 µM
  TGI: 24.9 µM
SF-539 CNS
  GI50: 2.92 µM
  TGI: 13.3 µM
HT29 colon
  GI50: 19.5 µM
  TGI: 48.2 µM

## CCC(=O)Nc1ncnc2ncn(C(=O)CC)c12
NCI/ADR-RES ovarian
  TGI: > 100 µM
A549 NSCLC
  TGI: > 100 µM
OVCAR-4 ovarian
  TGI: > 100 µM
U251 CNS
  TGI: > 100 µM
PC-3 prostate
  TGI: > 100 µM
SK-MEL-2 melanoma
  TGI: > 100 µM
HT29 colon
  TGI: > 100 µM
HCT-116 colon
  TGI: > 100 µM

## [N-]=[N+]=NC1C2CC3CC(C2)CC1C3 (configuration not stated)
A549 NSCLC
  TGI: > 100 µM
OVCAR-4 ovarian
  TGI: > 100 µM
U251 CNS
  TGI: > 100 µM
SK-MEL-5 melanoma
  TGI: > 100 µM
SK-MEL-2 melanoma
  TGI: > 100 µM
SF-539 CNS
  TGI: > 100 µM
HT29 colon
  TGI: > 100 µM
HCT-116 colon
  TGI: > 100 µM

## Cn1cc2ccccc2c1-c1nc(F)nc(Nc2ccc(N)cc2)n1
A549 NSCLC
  TGI: 65.3 µM
OVCAR-4 ovarian
  TGI: 64.3 µM
U251 CNS
  TGI: 26.4 µM
SK-MEL-5 melanoma
  TGI: 25 µM
SK-MEL-2 melanoma
  TGI: 30.1 µM
SF-539 CNS
  TGI: 35.1 µM
HT29 colon
  TGI: 57.3 µM
HCT-116 colon
  TGI: 35.1 µM

## OCCCCCNc1ccnc2cc(Cl)ccc12
A549 NSCLC
  TGI: > 100 µM
OVCAR-4 ovarian
  TGI: > 100 µM
U251 CNS
  TGI: > 100 µM
SK-MEL-5 melanoma
  TGI: > 100 µM
SK-MEL-2 melanoma
  TGI: > 100 µM
SF-539 CNS
  TGI: > 100 µM
HT29 colon
  TGI: > 100 µM
HCT-116 colon
  TGI: > 100 µM

## Cc1nc(-n2nc(-c3ccccc3)cc2-c2ccccc2)sc1C(=O)/C=C/c1ccc(Cl)cc1
A549 NSCLC
  TGI: 64.9 µM
U251 CNS
  TGI: 36.9 µM
SK-MEL-5 melanoma
  TGI: 31 µM
SK-MEL-2 melanoma
  TGI: 35.7 µM
SF-539 CNS
  TGI: 27.4 µM
HT29 colon
  TGI: 29.6 µM

## O=c1c(-c2nc3ccccc3[nH]2)cc2ccccc2n1Cc1cn(Cc2ccccc2Cl)nn1
NCI/ADR-RES ovarian
  GI50: 1.94 µM
  TGI: 4.22 µM
A549 NSCLC
  GI50: 2.05 µM
  TGI: 4.38 µM
OVCAR-4 ovarian
  GI50: 1.72 µM
  TGI: 3.44 µM
U251 CNS
  GI50: 2.41 µM
  TGI: 7.13 µM
PC-3 prostate
  GI50: 2.6 µM
  TGI: 7.5 µM
SK-MEL-2 melanoma
  GI50: 3.07 µM
  TGI: 10.8 µM
SF-539 CNS
  GI50: 1.78 µM
  TGI: 3.66 µM
HT29 colon
  GI50: 2.2 µM
  TGI: 4.7 µM
